Experimental data reported in paper PMC9070039, “Synthesis and evaluation of antimicrobial activity, cytotoxic and pro-apoptotic effects of novel spiro-4H-pyran derivatives” (RSC Advances, 2019).
≈ marks a conversion by molar mass, not a printed value.

How the values were obtained:
Bax = assay: Real-time RT-PCR, Bax mRNA expression; type: cell-based, human; conditions: A549 cells, 40 μM, 48 h
Excerpt: (§1) Finally, we confirmed that apoptosis mediated by mitochondria induces in A549 cells. It is well known that the anti-apoptotic Bcl-2 protein is localized on the outer mitochondrial membranes and antagonizes the action of pro-apoptotic Bax. The balance between these two proteins prevents translocation of cytochrome c from the mitochondria to cytoplasm and determines the apoptosis resistance. Down-regulation of Bcl-2 and/or up-regulation of Bax disturb this balance and leads to apoptosis (Fig. 3A).
(§2) For quantitative real-time RT-PCR analysis, after 48 h of treatment with 40 μM of related drug (5a), A549 cells was lysed and the total RNA was extracted using 500 μL of Trizol® reagent according to the protocol provided by the manufacturer (Invitrogen Life Technologies, Carlsbad, CA, USA) followed by reverse transcription into cDNA according to manufactures protocol (ReveretAid M-Mulv reverse transcriptase kit, Thermo Fisher Scientific, MA, USA). Real-time RT-PCR was then performed to amplify cDNA using SYBR green dye universal master mix (Bioron GmbH, Germany), on a Light Cycler 480 (Roche) using the primers for GAPDH-F: 5′-CAA GGT CAT CCA TGA CAA CTTTG-3′, R:5′-[…]-3′; Bax-F:5′-[…]-3′, R: 5′-[…]-3′and Bcl-2-F: 5′-[…]-3′, R: 5′- […]-3′for forty cycles. Data represent averaged copy number normalized to the GAPDH housekeeping gene. Primer synthesis was done by Pishgam Biotech Co. Tehran, Iran. […]

S. aureus [1] = assay: MIC determination; type: cell-based; conditions: Staphylococcus aureus; read-out: MICs (mM) S. aureus
Method: (§3) Antibacterial effects of spiro[indeno[2,1-c]pyridazine-9,4′-pyran]-3′,4-dicarbonitrile derivatives 5a–j were evaluated in vitro by using disk diffusion method against Gram-positive (S. aureus) and Gram negative (E. coli). The diameter of inhibition zone correlates to the sensitivity of a bacterium to an antibacterial agent. […] E. coli was resistant against all compounds tested (Table 2). Tetracycline and DMSO were used as positive control and negative control respectively. Next, the active compounds were analysed using MIC assay to determine the lowest concentration for inhibition. […] It seems due to the difference in structure of bacterial cell wall (i.e., the presence of outer membrane with lipid, lipopolysaccharide, and lipoprotein content in Gram negative bacteria), E. coli was resistant against the related synthetic compounds.
(§4) Antibacterial activity of the prepared synthetic compounds against the Gram-negative bacteria (E. coli; ATCC: 15922) and the Gram-positive bacteria (S. aureus; PTCC: 1112, International no. ATCC6538P) were examined by disk diffusion assay. Bacterial cultures were obtained from Persian Type Culture Collection, Tehran, Iran (PTCC). Isolated pure colonies from fresh grown bacteria were transferred from the plates into sterile normal saline solution and it was vortexed to form bacterial homogenous suspensions. The turbidity was then adjusted to 0.5 McFarland standard units, and the suspensions were poured over Mueller–Hinton agar (MHA) plates. Sterile filter paper disks were placed over these plates. The sterile disks were impregnated with the tested compounds. Positive control (tetracycline) and negative control ([…]) were used. To determine MIC, the concentrations of tested substance were prepared within the range from 30–5 mM. Incubate in incubator at 37 °C in 24 h for bacteria (Table 2).

S. aureus [2] = assay: Disk diffusion antibacterial test; type: cell-based, Staphylococcus aureus; conditions: there called agar dilution method
Method: as §3, §4

A549 cells [3] = assay: DAPI staining assay; type: cell-based, human; conditions: 24 h treatment
Method: (§5) At first, in order to compare anti-cancer properties, the synthesized compounds 5a–j were evaluated against A549 cells, MCF-7 cells, A375 cells, PC3 cells, LNCaP cells and HDF cells lines using the MTT colorimetric assay. The activity is expressed as 50% growth inhibitory concentration (IC50) values at 48 h. We used DMSO (1%) as negative control and Etoposide as positive control.
DAPI staining assay was used to determine chromatin changes. A549 cells were seeded in six well plates (5 × 10^4 cells per well) containing 12 mm cover-slips and subsequently treated for compound 5a (sample or treated cells) and DMSO (control or untreated cells) for 24 h. Cells then were fixed with 3.7% paraformaldehyde, permeabilized in 0.5% (w/v) Triton X-100, 1% BSA (w/v) for 5 min, washed in PBS, and stained with DAPI (Sigma-Aldrich, USA). All images were taken by an inverted fluorescent microscope (Nikon Eclipse Ti-E).

Bcl-2 = assay: Real-time RT-PCR, Bcl-2 mRNA expression; type: cell-based, human; conditions: A549 cells, 40 μM, 48 h
Excerpt: as §1, §2

E. coli = assay: Disk diffusion antibacterial test; type: cell-based, Escherichia coli; parameters: key: —: inactive at concentration 50 mM; conditions: disc diffusion test, concentration 50 mM
Method: as §3, §4

LNCaP cells = assay: MTT cytotoxicity assay; type: cell-based; conditions: Homo sapiens, 48 h
Method: as §5
(§6) Human non-small-cell lung cancer A549 cells, human breast cancer MCF-7 cells, human malignant melanoma cells (A375), human prostate cancer cells (PC3 cells, LNCaP cells) and normal cells HDF (human dermal fibroblast) were received from Pasture Institute, Tehran, Iran. MCF-7 cells were grown in RPMI 1640 medium, A549 cells, A375 cells, PC3 cells, LNCaP cells and HDF cells were grown in DMEM medium. All media contain 10% fetal bovine serum (FBS), penicillin G, streptomycin 100 μg mL^−1 and 1% L-glutamine. The cells were cultured and incubated under humidified 5% CO2 atmosphere at 37 °C.
(§7) The effect of compounds treatment on the viability of cancer cell lines was measured by (3-(4,5-dimethylthiazol-2-yl)-2,5-diphenyl tetrazolium bromide or MTT) assay (MTT assay kit, Bio IDEA, CatNo: BI1017, Iran) based on the ability of live cells to cleave the tetrazolium ring to a molecule that absorb at […] as per the manufacturer's instructions.[33] Etoposide (was kindly provided by Dr A. Foroumadi, Tehran medical Science University, Iran) and dimethyl sulfoxide (or DMSO) was used as positive and negative controls, respectively.[34] Briefly, cells were plated in 96-well culture plates (5 × 10^3 cells per well). After 24 h incubation, the cells were treated with different concentrations of the compounds. After 48 h at 37 °C, the medium was removed and 100 μL of MTT reagent (1 mg mL^−1) was added to each well, and cells were further incubated at 37 °C for 4 h. The MTT solution was removed, 50 μL of DMSO was added to each well to dissolve formazan crystals, and the plates were gently shaken for 10 minutes, followed by reading with an ELISA plate reader (BiotekELx 800, USA). The 50% inhibition concentration (IC50) was defined as the concentration that inhibited cell proliferation by 50% when compared to DMSO treated cells (as negative control).

PC3 cells = assay: MTT cytotoxicity assay; type: cell-based; conditions: Homo sapiens, PC-3, 48 h
Method: as §5, §6, §7

HDF cells = assay: MTT cytotoxicity assay; type: cell-based; conditions: 48 h, normal cells (human dermal fibroblast)
Method: as §5, §6, §7

A549 cells [4] = assay: MTT cytotoxicity assay; type: cell-based; conditions: Homo sapiens, 48 h
Method: as §5, §6, §7

MCF-7 cells = assay: MTT cytotoxicity assay; type: cell-based; conditions: Homo sapiens, MCF7, 48 h
Method: as §5, §6, §7

A375 cells = assay: MTT cytotoxicity assay; type: cell-based; conditions: Homo sapiens, A-375, 48 h
Method: as §5, §6, §7

MIC (S. aureus [1]): 5 mM (≈ 2140 µg/mL)
Structure (SMILES): Cn1c2c(c(=O)n(C)c1=O)C1(C(C#N)=C(N)O2)c2ccccc2-c2c1n[nH]c(=O)c2C#N (stereo not drawn) [5a, 7′-Amino-1′,3′-dimethyl-2′,3,4′-trioxo-1′,2,2′,3,3′,4′-hexahydrospiro[indeno[2,1-c]pyridazine-9,5′-pyrano[2,3-d]pyrimidine]-4,6′-dicarbonitrile]
Relative expression of Bax mRNA (Bax): up-regulated expression | Sensitivity of S. aureus to compound (S. aureus [2]): sensitive | Chromatin changes / cell death by DAPI staining (A549 cells [3]): induced cell death in A549 cells | Relative expression of Bcl-2 mRNA (Bcl-2): down-regulation expression | Inhibition zone (mm) E. coli (E. coli): — | IC50 (LNCaP cells): 32.15 ± 0.046 µM | IC50 (PC3 cells): > 100 µM | IC50 (HDF cells): > 100 µM | IC50 (A549 cells [4]): 40 ± 0.007 µM | IC50 (MCF-7 cells): > 100 µM | IC50 (A375 cells): 70.72 ± 0.064 µM
